Series [1] relates to CHO/CYP1B1 cells. The series can be described thus: cells. As to conditions: Cricetulus griseus.
The target in series [2] is T1, CYP1B1 (Homo sapiens, UniProt Q16678).
T1 sequence (Q16678 1-543): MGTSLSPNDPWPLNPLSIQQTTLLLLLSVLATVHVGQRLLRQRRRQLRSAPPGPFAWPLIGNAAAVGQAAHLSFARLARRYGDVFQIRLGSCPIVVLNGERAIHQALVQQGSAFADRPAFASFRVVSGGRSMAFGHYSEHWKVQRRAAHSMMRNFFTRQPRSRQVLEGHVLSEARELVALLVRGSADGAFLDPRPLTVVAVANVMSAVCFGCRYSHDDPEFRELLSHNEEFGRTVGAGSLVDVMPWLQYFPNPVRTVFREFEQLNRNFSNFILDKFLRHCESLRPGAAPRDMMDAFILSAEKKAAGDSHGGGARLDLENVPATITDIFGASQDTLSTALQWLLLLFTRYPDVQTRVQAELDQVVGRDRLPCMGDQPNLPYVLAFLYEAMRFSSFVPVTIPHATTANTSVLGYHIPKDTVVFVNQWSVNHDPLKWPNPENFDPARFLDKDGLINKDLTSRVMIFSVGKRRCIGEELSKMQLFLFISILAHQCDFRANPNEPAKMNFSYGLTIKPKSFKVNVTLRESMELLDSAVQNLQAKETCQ
The series can be described thus: CYP1B1 substrate prediction model (Gaussian Kernel weighted k-NN). The settings on record: predicted versus actual.

Series [3] concerns the target T1, CYP1B1. The series can be described thus: CYP1B1 substrate inhibition, P450-Glo Luciferin-CEE luminescent assay. The settings on record: human.
The test system of series [4] is CYP1A1. Nature of the series: in vitro. The settings on record: Chinese hamster.
The nature of series [5]: in vitro. The settings on record: Chinese hamster.
Series [6] concerns CHO/CYP1B1 cells.
For series [7], the system named is UT-SCC-14 tumour cells. Nature of the series: Cytotoxicity in primary HNSCC tumour cell line UT-SCC-14 (MTS assay). The settings on record: Homo sapiens, 72 h, read-out: cytotoxicity IC50 UT-SCC-14. A general note: Tetrazolium assays rely on reduction of a dye to a coloured formazan, in cell work by metabolically active cells.
Procedure: A UT-SCC-14 tumour cell suspension at 2000 cells per well on a 96-well plate and if necessary add fresh media to give a total volume per well of 100 μl. The cells were allowed to attach for 4 h in an incubator. […] The final concentration of ethanol 0.2% was found not to effect the growth characteristics of the UT-SCC-14 cell line. The UT-SCC-14 cells were incubated with test compound for 72 h after which time all aspirated and replaced with 100 μl of fresh medium to compensate for the loss of medium due to evaporation. The cells were incubated with 20 μl of the MTS assay reagent for 1.5 h and the absorbance per well at 510 nm measured using a plate reader. The mean absorbance and standard deviation for each test compound concentration was calculated versus a series of controls including (a) cells plus medium, (b) cell plus medium containing ethanol 0.2%, (c) medium alone, and (d) medium containing ethanol 0.2% and a range of test compound concentrations from 0 to 100 μmol dm^−3.
For series [8], the system named is UT-SCC-10. Nature of the series: cells. As to conditions: Homo sapiens, 72 h, read-out: cytotoxicity IC50 UT-SCC-10.
The test system of series [9] is UT-SCC-9. The series can be described thus: cells. As to conditions: Homo sapiens, 72 h, read-out: cytotoxicity IC50 UT-SCC-9.
Series [10] has as its system UT-SCC-8. The series can be described thus: cells. The settings on record: Homo sapiens, 72 h, read-out: cytotoxicity IC50 UT-SCC-8.
Series [11] relates to UTSCC-14 primary human tumour xenograft. Nature of the series: Anti-tumour activity in primary human tumour xenograft model. The class given is in vivo, nude mice. The settings on record: for Tumour growth delay at 28 days: 2 cycles daily for 5 days/2 days off. The procedure:
Primary UTSCC-14 cell lines 3×10^6 were implanted subcutaneously in the flank of nude mice. Mice were randomized to 10 animals per group when the tumour volume was 100 to 150 mm^3. SU046-04 was given intraperitoneally at 12, 25 and 50 mg/Kg in PBS versus versus vehicle alone for 2 cycles: daily for 5 days/2 days off. Tumour volume was measured every 4 days using calipers. […] Tumour growth delay at 28 days was 31% at 12 mg/Kg, 56% at 25 mg/Kg, and 90% at 50 mg/Kg with 4/10 complete responses.
Background: A xenograft is tissue or cells of one species grown in another, often human tumour cells in immunodeficient mice.

In series [12] the test system is CHO cells.
In series [13] the target is T2, human supersomal CYP1B1 plus reductase (Homo sapiens, UniProt Q16678).
T2 sequence (Q16678 1-543): T1 sequence (Q16678 1-543)
The series can be described thus: CYP1B1 substrate inhibition, P450-Glo Luciferin-CEE luminescent assay. As to conditions: final concentration of 0.5 mmol dm^−3; triplicate, mean ± standard deviation.

In series [14] the target is T3, CYP1A1 (Homo sapiens, UniProt P04798).
T3 sequence (P04798 1-512): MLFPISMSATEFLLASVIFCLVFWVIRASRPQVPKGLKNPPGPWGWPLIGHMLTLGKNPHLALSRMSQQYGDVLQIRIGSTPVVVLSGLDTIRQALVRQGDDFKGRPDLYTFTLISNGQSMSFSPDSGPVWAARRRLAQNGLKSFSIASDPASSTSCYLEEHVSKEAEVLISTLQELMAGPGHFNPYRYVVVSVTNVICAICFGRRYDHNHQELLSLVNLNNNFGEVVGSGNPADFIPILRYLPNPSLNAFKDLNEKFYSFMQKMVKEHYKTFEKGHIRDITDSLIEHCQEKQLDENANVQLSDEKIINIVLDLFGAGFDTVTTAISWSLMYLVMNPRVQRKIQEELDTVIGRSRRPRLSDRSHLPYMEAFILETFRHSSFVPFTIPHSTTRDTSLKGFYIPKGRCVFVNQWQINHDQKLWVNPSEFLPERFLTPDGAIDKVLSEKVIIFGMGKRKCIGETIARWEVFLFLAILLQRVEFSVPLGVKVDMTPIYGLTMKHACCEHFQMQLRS
The settings on record: inhibitor at 10 nmol dm^−3.

The target of series [15] is T3, CYP1A1. The settings on record: inhibitor at 10 nmol dm^−3. The source holds these as a separate data set.
Setting [16] is: 72 h, read-out: Cytotoxicity (IC50) CHO/CYP1B1 72 h.
Where [17] appears, read: 96 h, read-out: Cytotoxicity (IC50) CHO/CYP1B1 96 h.
The mark [18] stands for this setting: cytotoxicity IC50 in wild-type CHO cells.

Where two headings read alike, the source gives them in different places.

With `Cc1cc(=O)oc2cc(OCc3c4ccccc4cc4ccccc34)ccc12` [SU06-02, 7-(anthracen-9-ylmethoxy)-4-methyl-2H-chromen-2-one], the melting point (usually the temperature of the solid-liquid transition) lay within 216 to 218 °C.

For the compound `COc1cc(OC)c2oc(COP(=O)(NCCCl)NCCCl)cc2c1` [SU025-04], the IC50 in series [1] (setting [16]) is 9 ± 5 nM; in series [1] (setting [17]) it was 3 ± 2 nM; in series [4], 25500 ± 1000 nM; in series [5] (Cytotoxicity (IC50) CHO 72 h) it was 15200 ± 200 nM; in series [5] (Cytotoxicity (IC50) CHO 96 h), 10100 ± 300 nM; in series [5] (setting [18]) it was at least 10000 nM. Further, in [7], the IC50 is 50 ± 10 nM. In addition, the “% CYP1B1 substrate inhibition accuracy” value in series [2] is given as 96%. In addition, in series [3], the inhibition (usually the drop in the measured response relative to a control, in per cent) at 0.5 mmol dm^−3 came to 91.22 ± 0.48%. In series [6], the “IC50 ratio 72 h (CHO / CHO/CYP1B1)” value is on record as 1689.

As to `CC[C@@]1(O)C(=O)OCc2c1cc1n(c2=O)Cc2cc3cc(OCc4cc5cc(OC)cc(OC)c5o4)ccc3nc2-1` [SU037-04], the IC50 was determined as 210 ± 40 nM in series [8], 220 ± 80 nM in series [9], 560 ± 40 nM in series [10] and 120 ± 70 nM in [7].

In the case of `COc1cc(OC)c2oc(COP(=O)(NCCBr)NCCBr)cc2c1` [SU046-04], the IC50 in [1] (setting [16]) is 4 ± 2 nM; in series [1] (setting [17]), 3 ± 1 nM; in [4] it was 20300 ± 2100 nM; in series [5] (Cytotoxicity (IC50) CHO 72 h), 20300 ± 1200 nM; in series [5] (Cytotoxicity (IC50) CHO 96 h), 16200 ± 200 nM; in [5] (setting [18]) it was at least 10000 nM. The IC50 in [7] was 20 ± 10 nM. In [2], the “% CYP1B1 substrate inhibition accuracy” value was 96%. The same compound showed an inhibition at 0.5 mmol dm^−3 in series [3] of 96.45 ± 0.22%. The “Tumour growth delay at 28 days” value in series [11] (12 mg/Kg intraperitoneally) is recorded as 31%; in series [11] (25 mg/Kg intraperitoneally), 56%; in [11] (50 mg/Kg intraperitoneally) it was 90%. In addition, the complete responses in series [11] (50 mg/Kg intraperitoneally) is 4/10. Moreover, the “adverse effects / body weight loss” value in series [11] (after highest exposure 250 mg/Kg) is “No observed adverse effects or significant body weight loss”. In [11] (all three treatment arms 12, 25 and 50 mg/Kg), the “inhibition of tumour growth versus vehicle” value is “significant inhibition of tumour growth”. For the same compound, the “IC50 ratio 72 h (CHO / CHO/CYP1B1)” value in series [6] amounted to 5075.

For the compound `O=P1(N(CCCl)CCCl)NCCCO1` (stereo not shown) [cyclophosphamide], the “toxicity in the CHO cytotoxicity assay” value in [12] was “non-toxic”.

Turning to `C[C@]12CC[C@@H]3c4ccc(O)cc4CC[C@H]3[C@@H]1CC[C@@H]2O` [β-estradiol, reference compound], the “% CYP1B1 substrate inhibition accuracy” value in [2] is on record as 95%. Besides, the “% CYP1B1 substrate inhibition actual” value in series [13] is on record as 72.34 ± 0.45%.

With tetramethoxystilbene, the “% CYP1B1 substrate inhibition accuracy” value in [2] is reported as 98%. Also, the “Specific activity CHO/CYP1A1 Luciferin-CEE” value in [14] is 20 ± 5 pmol resorufin or luciferin min^−1 mg protein^−1. The “Specific activity CHO/CYP1A1 ethoxyresorufin” value in series [15] was 26 ± 4 pmol resorufin or luciferin min^−1 mg protein^−1.

The values are drawn from patent US20120302748A1, “TREATMENT OR PROPHYLAXIS OF PROLIFERATIVE CONDITIONS” (THE UNIVERSITY COURT OF THE UNIVERSITY OF DUNDEE, priority 2009, published 2012).
